# Source: PMC5218480 (PLoS ONE, 2017)
# System: MV-4-11 cells
# Experiment: Gene expression microarray analysis (Affymetrix PrimeView) and GSEA
# Type: cell-based, human
# Set-up: RFU PODN (11730768_x_at) / Fold change /veh PODN (11730768_x_at) / RFU LINC00158 (11744669_a_at) / Fold change /veh LINC00158 (11744669_a_at) / RFU DUSP10 (11751237_a_at) / Fold change /veh DUSP10 (11751237_a_at) / RFU ID3 (11757404_x_at) / Fold change /veh ID3 (11757404_x_at) / RFU PLEKHG5 (11737974_s_at) / Fold change /veh PLEKHG5 (11737974_s_at) / RFU LRRC4B (11730491_at) / Fold change /veh LRRC4B (11730491_at) / RFU GIMAP4 (11747438_a_at) / Fold change /veh GIMAP4 (11747438_a_at) / RFU KRT8 (11758183_x_at) / Fold change /veh KRT8 (11758183_x_at) / RFU CNN1 (11734310_a_at) / Fold change /veh CNN1 (11734310_a_at) / RFU VPS37D (11726825_at) / Fold change /veh VPS37D (11726825_at) / RFU C10orf10 (11716522_x_at) / Fold change /veh C10orf10 (11716522_x_at) / RFU KIR2DL2 /// KIR2DL4 /// KIR2DL5A /// KIR2DL5B /// KIR2DS1 /// KIR2DS2 /// KIR2DS3 /// KIR2DS4 /// KIR3DL3 /// KIR3DL3 /// KIR3DS1 (11738374_at) / Fold change /veh KIR2DL2 /// KIR2DL4 /// KIR2DL5A /// KIR2DL5B /// KIR2DS1 /// KIR2DS2 /// KIR2DS3 /// KIR2DS4 /// KIR3DL3 /// KIR3DL3 /// KIR3DS1 (11738374_at) / RFU C1QL1 (11718748_at) / Fold change /veh C1QL1 (11718748_at) / RFU TMPRSS4 (11747572_a_at) / Fold change /veh TMPRSS4 (11747572_a_at) / RFU HAMP (11756126_x_at) / Fold change /veh HAMP (11756126_x_at) / RFU RNFT2 (11725882_a_at) / Fold change /veh RNFT2 (11725882_a_at) / RFU NR4A2 (11747474_a_at) / Fold change /veh NR4A2 (11747474_a_at) / RFU ABCC12 (11746883_a_at) / Fold change /veh ABCC12 (11746883_a_at) / RFU TMEM136 (11760407_x_at) / Fold change /veh TMEM136 (11760407_x_at) / RFU CLDN22 /// WWC2 (11732394_at) / Fold change /veh CLDN22 /// WWC2 (11732394_at) / RFU HLA-DPB1 (11760878_x_at) / Fold change /veh HLA-DPB1 (11760878_x_at) / RFU SPINT1 (11716480_a_at) / Fold change /veh SPINT1 (11716480_a_at) / RFU GAP43 (11754022_s_at) / Fold change /veh GAP43 (11754022_s_at) / RFU A4GNT (11735810_at) / Fold change /veh A4GNT (11735810_at) / RFU PRB3 (11715151_x_at) / Fold change /veh PRB3 (11715151_x_at) / RFU TUBB4B (11761932_at) / Fold change /veh TUBB4B (11761932_at) / RFU CAPN14 (11732068_a_at) / Fold change /veh CAPN14 (11732068_a_at) / RFU TMCC2 (11721928_a_at) / Fold change /veh TMCC2 (11721928_a_at) / RFU IRGQ (11745062_a_at) / Fold change /veh IRGQ (11745062_a_at) / RFU FAM174B (11720279_a_at) / Fold change /veh FAM174B (11720279_a_at) / RFU TMPRSS4 (11748680_a_at) / Fold change /veh TMPRSS4 (11748680_a_at) / RFU FAM212B (11763350_a_at) / Fold change /veh FAM212B (11763350_a_at) / RFU PLEKHG5 (11743358_a_at) / Fold change /veh PLEKHG5 (11743358_a_at) / RFU ZSCAN30 (11745921_a_at) / Fold change /veh ZSCAN30 (11745921_a_at) / RFU CMKLR1 (11741424_a_at) / Fold change /veh CMKLR1 (11741424_a_at) / RFU LOC101060620 /// MAPK8IP1 (11723275_at) / Fold change /veh LOC101060620 /// MAPK8IP1 (11723275_at) / RFU SPTSSB (11747773_x_at) / Fold change /veh SPTSSB (11747773_x_at) / RFU PRSS12 (11739890_at) / Fold change /veh PRSS12 (11739890_at) / RFU BIN1 (11741810_x_at) / Fold change /veh BIN1 (11741810_x_at) / RFU WNT11 (11732464_a_at) / Fold change /veh WNT11 (11732464_a_at) / RFU C10orf10 (11716521_a_at) / Fold change /veh C10orf10 (11716521_a_at) / RFU C5orf56 (11738089_at) / Fold change /veh C5orf56 (11738089_at) / RFU CYB561 (11721691_x_at) / Fold change /veh CYB561 (11721691_x_at) / RFU ANKRD19P (11752326_a_at) / Fold change /veh ANKRD19P (11752326_a_at) / RFU OR2T12 /// OR2T33 /// OR2T8 (11738714_s_at) / Fold change /veh OR2T12 /// OR2T33 /// OR2T8 (11738714_s_at) / RFU VCAN (11748164_a_at) / Fold change /veh VCAN (11748164_a_at) / RFU JSRP1 (11732532_at) / Fold change /veh JSRP1 (11732532_at) / RFU KRTAP10-11 (11738290_x_at) / Fold change /veh KRTAP10-11 (11738290_x_at) / RFU MYO3A (11730013_a_at) / Fold change /veh MYO3A (11730013_a_at) / RFU EBF3 (11725865_a_at) / Fold change /veh EBF3 (11725865_a_at) / RFU CAMK2N1 (11719241_x_at) / Fold change /veh CAMK2N1 (11719241_x_at) / RFU C5orf56 (11738088_a_at) / Fold change /veh C5orf56 (11738088_a_at) / RFU OLFML3 (11715873_a_at) / Fold change /veh OLFML3 (11715873_a_at) / RFU LOC100653217 /// NTM (11731650_a_at) / Fold change /veh LOC100653217 /// NTM (11731650_a_at) / RFU MAPK11 (11762145_a_at) / Fold change /veh MAPK11 (11762145_a_at) / RFU FIZ1 (11724087_x_at) / Fold change /veh FIZ1 (11724087_x_at) / RFU OASL (11726364_x_at) / Fold change /veh OASL (11726364_x_at) / RFU SOX15 (11748057_x_at) / Fold change /veh SOX15 (11748057_x_at) / RFU CD79A (11719716_a_at) / Fold change /veh CD79A (11719716_a_at) / RFU HIST1H1D (11736915_at) / Fold change /veh HIST1H1D (11736915_at) / RFU CASKIN2 (11723855_a_at) / Fold change /veh CASKIN2 (11723855_a_at) / RFU LOC730098 (11760151_x_at) / Fold change /veh LOC730098 (11760151_x_at) / RFU OR4N2 (11742367_at) / Fold change /veh OR4N2 (11742367_at) / RFU PRRT2 (11749266_a_at) / Fold change /veh PRRT2 (11749266_a_at) / RFU SNX32 (11753110_a_at) / Fold change /veh SNX32 (11753110_a_at) / RFU CDHR5 (11726645_a_at) / Fold change /veh CDHR5 (11726645_a_at) / RFU RCAN1 (11760418_a_at) / Fold change /veh RCAN1 (11760418_a_at) / RFU FAM167A (11723789_a_at) / Fold change /veh FAM167A (11723789_a_at) / RFU FAM26E (11764081_at) / Fold change /veh FAM26E (11764081_at) / RFU ISYNA1 (11749810_s_at) / Fold change /veh ISYNA1 (11749810_s_at) / RFU ACY1 (11761880_at) / Fold change /veh ACY1 (11761880_at) / RFU 11764098_at / Fold change /veh 11764098_at / RFU SAMD14 (11745864_x_at) / Fold change /veh SAMD14 (11745864_x_at) / RFU NPB (11741838_a_at) / Fold change /veh NPB (11741838_a_at) / RFU TMPRSS6 (11731388_a_at) / Fold change /veh TMPRSS6 (11731388_a_at) / RFU KRTAP10-2 (11738614_at) / Fold change /veh KRTAP10-2 (11738614_at) / RFU ARHGAP8 /// PRR5-ARHGAP8 (11727945_x_at) / Fold change /veh ARHGAP8 /// PRR5-ARHGAP8 (11727945_x_at) / RFU KRTAP5-7 /// NADSYN1 (11734609_at) / Fold change /veh KRTAP5-7 /// NADSYN1 (11734609_at) / RFU RASL12 (11751679_a_at) / Fold change /veh RASL12 (11751679_a_at) / RFU CDKN2B (11736163_a_at) / Fold change /veh CDKN2B (11736163_a_at) / RFU PRF1 (11729649_at) / Fold change /veh PRF1 (11729649_at) / RFU, ZNF638 /// ZNF638-IT1 / Fold change vs veh, ZNF638 /// ZNF638-IT1 / RFU, PANK3 / Fold change vs veh, PANK3 / RFU, SH3YL1 / Fold change vs veh, SH3YL1 / RFU, ZEB2 / Fold change vs veh, ZEB2 / RFU, NRIP1 / Fold change vs veh, NRIP1 / RFU, PTTG1IP / Fold change vs veh, PTTG1IP / RFU, CAPN2 / Fold change vs veh, CAPN2 / RFU, MED14 / Fold change vs veh, MED14 / RFU, SNORA58 / Fold change vs veh, SNORA58 / RFU, C1orf63 / Fold change vs veh, C1orf63 / RFU, LRRFIP1 / Fold change vs veh, LRRFIP1 / RFU, NDUFAF7 / Fold change vs veh, NDUFAF7 / RFU, SLC12A2 / Fold change vs veh, SLC12A2 / RFU, IBTK / Fold change vs veh, IBTK / RFU, ESF1 / Fold change vs veh, ESF1 / Fold change vs veh, TMEM50B / RFU, TAOK1 / Fold change vs veh, TAOK1 / RFU, ACBD3 / Fold change vs veh, ACBD3 / RFU, TMA16 / Fold change vs veh, TMA16 / RFU, RWDD3 / Fold change vs veh, RWDD3 / RFU, BCAT1 / Fold change vs veh, BCAT1 / RFU, EDEM3 / Fold change vs veh, EDEM3 / RFU, TMEM33 / Fold change vs veh, TMEM33 / RFU, WDR75 / Fold change vs veh, WDR75 / RFU, AHCTF1 / Fold change vs veh, AHCTF1 / RFU, TFRC / Fold change vs veh, TFRC / RFU, ZDHHC17 / Fold change vs veh, ZDHHC17 / RFU, NOM1 / Fold change vs veh, NOM1 / RFU, ARL8B / Fold change vs veh, ARL8B / RFU, ZBTB11 / Fold change vs veh, ZBTB11 / RFU, TAMM41 / Fold change vs veh, TAMM41 / RFU, KIAA1704 /// LOC100996395 / Fold change vs veh, KIAA1704 /// LOC100996395 / RFU, ING1 / Fold change vs veh, ING1 / RFU, TRMT61B / Fold change vs veh, TRMT61B / RFU, FUBP3 / Fold change vs veh, FUBP3 / RFU, TP53 / Fold change vs veh, TP53 / RFU, TNKS2 / Fold change vs veh, TNKS2 / RFU, ZFP14 / Fold change vs veh, ZFP14 / RFU, ACTR2 / Fold change vs veh, ACTR2 / RFU, PPP3R1 / Fold change vs veh, PPP3R1 / RFU, PIK3R1 / Fold change vs veh, PIK3R1 / RFU, HNRNPA1 / Fold change vs veh, HNRNPA1 / RFU, RNF170 / Fold change vs veh, RNF170 / RFU, ZNF28 / Fold change vs veh, ZNF28 / RFU, RNGTT / Fold change vs veh, RNGTT / RFU, OGT / Fold change vs veh, OGT / RFU, BRD1 / Fold change vs veh, BRD1 / RFU, MARS / Fold change vs veh, MARS / RFU, ZNF655 / Fold change vs veh, ZNF655 / RFU, FAHD1 / Fold change vs veh, FAHD1 / RFU, BDP1 / Fold change vs veh, BDP1 / RFU, LRRCC1 / Fold change vs veh, LRRCC1 / RFU, ARID1A / Fold change vs veh, ARID1A / RFU, ZNF146 / Fold change vs veh, ZNF146 / RFU, ZNF330 / Fold change vs veh, ZNF330 / RFU, GPN3 / Fold change vs veh, GPN3 / RFU, C9orf123 / Fold change vs veh, C9orf123 / RFU, N4BP2L2 / Fold change vs veh, N4BP2L2 / RFU, ARFIP1 / Fold change vs veh, ARFIP1 / RFU, FAM179B / Fold change vs veh, FAM179B / RFU, BCL10 / Fold change vs veh, BCL10 / RFU, UHRF1BP1L / Fold change vs veh, UHRF1BP1L / RFU, BET1 / Fold change vs veh, BET1 / RFU, CNOT2 / Fold change vs veh, CNOT2 / RFU, ZNF268 / Fold change vs veh, ZNF268 / Fold change vs veh, ZNF507 / RFU, DGCR2 / Fold change vs veh, DGCR2 / RFU, WDSUB1 / Fold change vs veh, WDSUB1 / Fold change vs veh, HSP90B1 /// MIR3652 / RFU, ADSS / Fold change vs veh, ADSS / RFU, GK / Fold change vs veh, GK / RFU, ZNF148 / Fold change vs veh, ZNF148 / RFU, TAF9 / Fold change vs veh, TAF9 / RFU, SLC1A5 / Fold change vs veh, SLC1A5 / RFU, SLMO2 / Fold change vs veh, SLMO2 / RFU, ABCC4 / Fold change vs veh, ABCC4 / RFU, LOC101060439 /// RAP1B / Fold change vs veh, LOC101060439 /// RAP1B / RFU, RFX7 / Fold change vs veh, RFX7 / RFU, GTPBP10 / Fold change vs veh, GTPBP10 / RFU, CNEP1R1 / Fold change vs veh, CNEP1R1 / RFU, BIVM-ERCC5 /// ERCC5 / Fold change vs veh, BIVM-ERCC5 /// ERCC5 / RFU, ILF3 / Fold change vs veh, ILF3 / RFU 11762660_at / Fold change /veh 11762660_at / RFU VCAN (11757783_s_at) / Fold change /veh VCAN (11757783_s_at) / RFU DDX43 (11728927_at) / Fold change /veh DDX43 (11728927_at) / RFU KRT8 (11758188_x_at) / Fold change /veh KRT8 (11758188_x_at) / RFU NKD1 (11759106_at) / Fold change /veh NKD1 (11759106_at) / RFU SRD5A1 (11742802_a_at) / Fold change /veh SRD5A1 (11742802_a_at) / RFU TPSAB1 /// TPSB2 (11721975_s_at) / Fold change /veh TPSAB1 /// TPSB2 (11721975_s_at) / RFU GSTM3 (11746129_a_at) / Fold change /veh GSTM3 (11746129_a_at) / RFU IL23R (11737362_x_at) / Fold change /veh IL23R (11737362_x_at) / RFU TMEM51 (11727254_a_at) / Fold change /veh TMEM51 (11727254_a_at) / RFU PIWIL2 (11732686_x_at) / Fold change /veh PIWIL2 (11732686_x_at) / RFU ORM1 (11744905_x_at) / Fold change /veh ORM1 (11744905_x_at) / RFU CCDC152 (11743942_at) / Fold change /veh CCDC152 (11743942_at) / RFU ECM1 (11717891_a_at) / Fold change /veh ECM1 (11717891_a_at) / RFU IL23R (11748794_a_at) / Fold change /veh IL23R (11748794_a_at) / RFU TNFAIP8L3 (11732012_x_at) / Fold change /veh TNFAIP8L3 (11732012_x_at) / RFU MBOAT4 (11741988_at) / Fold change /veh MBOAT4 (11741988_at) / RFU 11764193_at / Fold change /veh 11764193_at / RFU TMEM53 (11763286_at) / Fold change /veh TMEM53 (11763286_at) / RFU MAGEB2 (11727129_at) / Fold change /veh MAGEB2 (11727129_at) / RFU TMEM200A (11744735_a_at) / Fold change /veh TMEM200A (11744735_a_at) / RFU CCDC152 (11751479_a_at) / Fold change /veh CCDC152 (11751479_a_at) / RFU FAM211A (11726209_a_at) / Fold change /veh FAM211A (11726209_a_at) / RFU RGS16 (11746705_a_at) / Fold change /veh RGS16 (11746705_a_at) / RFU VCAN (11755009_s_at) / Fold change /veh VCAN (11755009_s_at) / RFU RHOB (11743442_s_at) / Fold change /veh RHOB (11743442_s_at) / RFU RGS16 (11720943_a_at) / Fold change /veh RGS16 (11720943_a_at) / RFU RGS16 (11720944_at) / Fold change /veh RGS16 (11720944_at) / RFU, VPS4B / Fold change vs veh, VPS4B / RFU, CREB1 / Fold change vs veh, CREB1 / RFU, DNAJC13 / Fold change vs veh, DNAJC13 / RFU, GNAQ / Fold change vs veh, GNAQ / RFU, CDK5R1 / Fold change vs veh, CDK5R1 / RFU, ZRANB3 / Fold change vs veh, ZRANB3 / RFU, CUL4A / Fold change vs veh, CUL4A / RFU, CCNY / Fold change vs veh, CCNY / RFU, UFL1 / Fold change vs veh, UFL1 / RFU, COG3 / Fold change vs veh, COG3 / RFU, DIAPH2 / Fold change vs veh, DIAPH2 / RFU, SKA2 / Fold change vs veh, SKA2 / RFU, AFF3 / Fold change vs veh, AFF3 / RFU, LMF1 / Fold change vs veh, LMF1 / RFU, IPO11 / Fold change vs veh, IPO11 / RFU, DFFB / Fold change vs veh, DFFB / RFU, FOXP1 / Fold change vs veh, FOXP1 / RFU, CARD8 / Fold change vs veh, CARD8 / RFU, STRN3 / Fold change vs veh, STRN3 / RFU, ADK / Fold change vs veh, ADK / RFU, RASSF2 / Fold change vs veh, RASSF2 / RFU, WIPF1 / Fold change vs veh, WIPF1 / RFU, LARP1B / Fold change vs veh, LARP1B / RFU, RASA1 / Fold change vs veh, RASA1 / RFU, RB1 / Fold change vs veh, RB1 / RFU, PPFIA1 / Fold change vs veh, PPFIA1 / RFU, MAT2A / Fold change vs veh, MAT2A / RFU, CCT5 / Fold change vs veh, CCT5 / RFU, WDR92 / Fold change vs veh, WDR92 / RFU, CUX1 / Fold change vs veh, CUX1 / RFU, TTC7A / Fold change vs veh, TTC7A / RFU, TMEM135 / Fold change vs veh, TMEM135 / RFU, DEPTOR / Fold change vs veh, DEPTOR / RFU, CPM / Fold change vs veh, CPM / RFU, DNAJB6 / Fold change vs veh, DNAJB6 / RFU, CACNA2D3 / Fold change vs veh, CACNA2D3 / RFU, DTX4 / Fold change vs veh, DTX4 / RFU, TFCP2 / Fold change vs veh, TFCP2 / RFU, GMCL1 /// GMCL1P1 / Fold change vs veh, GMCL1 /// GMCL1P1 / RFU, AEBP2 / Fold change vs veh, AEBP2 / RFU, SNHG1 /// SNORD22 /// SNORD25 /// SNORD26 /// SNORD27 /// SNORD28 /// SNORD29 /// SNORD31 / Fold change vs veh, SNHG1 /// SNORD22 /// SNORD25 /// SNORD26 /// SNORD27 /// SNORD28 /// SNORD29 /// SNORD31 / Fold change (Aza/veh), C12orf56 (ProbeSet 11735607_a_at) / Fold change (ACY-1035/veh), C12orf56 (ProbeSet 11735607_a_at) / Fold change (Aza/veh), FGFR1OP (ProbeSet 11751329_s_at) / Fold change (ACY-1035/veh), FGFR1OP (ProbeSet 11751329_s_at) / Fold change (Aza/veh), VPS36 (ProbeSet 11739960_a_at) / Fold change (ACY-1035/veh), VPS36 (ProbeSet 11739960_a_at) / RFU SYPL1 (11715823_x_at) / Fold change /veh SYPL1 (11715823_x_at) / RFU IGFBP7 (11715501_s_at) / Fold change /veh IGFBP7 (11715501_s_at) / RFU REEP3 (11722064_at) / Fold change /veh REEP3 (11722064_at) / RFU IGLL1 (11728026_x_at) / Fold change /veh IGLL1 (11728026_x_at): dose or concentration left out as unconfirmed
# Details: MV-4-11 cells, 48 hours
smiles,measurement,value
Nc1ncn([C@@H]2O[C@H](CO)[C@@H](O)[C@H]2O)c(=O)n1 [azacitidine],RFU PODN (11730768_x_at),27.35 RFU
